According to patent publication US12508225B2, “Lipid compound and use thereof in delivery of nucleic acid” (BEIJING TRICISIONBIO THERAPEUTICS INC., priority 2021, dated 2025):

Experiment: TNS dye-binding assay for dissociation constant (pKa)
Type: physicochemical
Excerpt: Ionizable lipids have two main roles: binding to nucleic acids and allowing the release of the nucleic acid molecules in cells.

pKa: 6.81
Compound: CCCCC/C=C\C/C=C\CCCCCCC(O)CNCCN(C)CCN(CC(O)CCCCCC/C=C\C/C=C\CCCCC)CC(O)CCCCCC/C=C\C/C=C\CCCCC (stereo not shown) [II-37]
